# According to US20240000767A1, “COMBINATION OF AN ALPHA2-ADRENOCEPTOR SUBTYPE C (ALPHA-2C) ANTAGONIST WITH A TASK1/3 CHANNEL BLOCKER FOR THE TREATMENT OF SLEEP APNEA” (Bayer Aktiengesellschaft, priority 2020, published 2024):
# How the values were obtained:
# human ADRA2C receptor [1] = target: T1, human ADRA2C receptor (Homo sapiens (Human), UniProt P18825); test: In vitro radioligand binding studies ([3H] rauwolscine competition) at the human adrenoreceptor ADRA2C; conditions: for IC50: 0.5 nM [3H] rauwolscine, homogenates of CHO-K1 cells expressing human ADRA2C, 1 h at 4° C., read-out: hARα2C IC50; for Ki: calculated from IC50 and Kd with the Cheng Prusoff equation, read-out: hARα2C Ki
# T1 sequence (P18825 whole entry): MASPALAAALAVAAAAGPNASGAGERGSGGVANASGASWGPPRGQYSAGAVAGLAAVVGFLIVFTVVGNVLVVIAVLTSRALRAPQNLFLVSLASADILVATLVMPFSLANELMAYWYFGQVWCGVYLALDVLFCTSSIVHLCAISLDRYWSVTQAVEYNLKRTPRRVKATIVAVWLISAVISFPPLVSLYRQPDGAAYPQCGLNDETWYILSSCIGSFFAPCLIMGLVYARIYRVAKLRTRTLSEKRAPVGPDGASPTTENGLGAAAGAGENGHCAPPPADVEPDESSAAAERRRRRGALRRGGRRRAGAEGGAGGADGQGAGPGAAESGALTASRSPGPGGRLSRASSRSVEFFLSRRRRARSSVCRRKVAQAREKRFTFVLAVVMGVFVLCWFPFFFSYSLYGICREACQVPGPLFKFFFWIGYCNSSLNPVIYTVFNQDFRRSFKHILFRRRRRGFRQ
# Method: B-1 In Vitro Radioligand Binding Studies for Determination of the Dissociation Constants K1 at the Human Adrenoreceptor ADRA2C (Eurofins Panlabs Discovery Services, Taiwan, Ltd)
# A competition assay based on [^3H] rauwolscine as radioliganden was used to determine the binding affinity of the test substances at the human ADRA2C receptor.
# To configure the competition assay, the equilibrium dissociation constant Kd of the radioligand [^3H] rauwolscine was determined in a saturation experiment. To this end, homogenates of CHO-K1 cells recombinantly expressing the human ADRA2C receptor were incubated with increasing concentrations of the radiotracers for 1 h at 4° C. in binding buffer (50 mM Tris-HCl, 1 mM EDTA, pH 7.4). Unspecific binding was determined by addition of an excess of the not radioactively labelled ligand prazosin (10 μM). The radioactivity was determined in a scintiation counter.
# The competition experiments were carried out in the presence of 0.5 nM [^3H] rauwolscine and increasing concentrations of the test substances to be characterized under the conditions described above.
# From the IC50 value measured in the competition experiment and the […] from the saturation experiment, the equilibrium constant Ki of the inhibitor, which describes the affinity of the test substances to the receptor, was calculated using the Cheng Prusoff equation [Cheng Y, Prusoff WH. Relationship between the inhibition constant (Ki) and the concentration of inhibitor which causes 50 percent inhibition (I50) of an enzymatic reaction. […] PMID 4202581 PMID: 4202581].
# human ADRA2C receptor [2] = target: T1, human ADRA2C receptor; test: In vitro activity assay to determine the inhibition of recombinant ADRA2C (CHO-K1 cells, aequorin bioluminescence); assay type: cell-based; conditions: inhibition of noradrenaline-induced bioluminescence signal; some mean values from multiple determinations; read-out: ARα2C IC50
# Procedure, shortened: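 IC50 is the concentration halving the agonist (noradrenaline)-evoked rise in aequorin luminescence, fitted by 4-parameter Hill function. Read in stable Gαq/aequorin CHO-K1 cells expressing recombinant human ADRA2C.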
# [3] = test system: anaesthetized, spontaneously breathing pigs; test: Pig model of obstructive sleep apnea (OSA): upper airway collapsibility under negative pressure; assay type: in vivo, German Landrace pigs; conditions: for Percent pigs without collaps −50 cm H2O / Percent pigs without collaps −100 cm H2O / Percent pigs without collaps −150 cm H2O: 0.01 mg/kg intraduodenal at 0 min; for upper airway collapsibility / time points at which upper airway collapsibility was inhibited at all negative pressures of −50, −100 and −150 cm H2O in all pigs: 0.01 mg/kg intraduodenal, alone
# Text: B-3 Animal Model of Obstructive Sleep Apnoea in the Pig
# Using negative pressure, it is possible to induce collapse and thus obstruction of the upper respiratory tract in anesthetized, spontaneously breathing pigs [Wirth et al., Sleep 36, 699-708 (2013)].
# German Landrace pigs are used for the model. The pigs are anesthetized and tracheotomized. One cannula each is inserted into the rostral and the caudal part of the trachea. Using a T connector, the rostral cannula is connected on the one hand to a device generating negative pressures and on the other hand to the caudal cannula. Using a T connector, the caudal cannula is connected to the rostral cannula and to a tube which allows spontaneous breathing circumventing the upper respiratory tract. By appropriate closing and opening of the tubes it is thus possible for the pig to change from normal nasal breathing to breathing via the caudal cannula during the time when the upper respiratory tract is isolated and connected to the device for generating negative pressures. The muscle activity of the musculus genioglossus is recorded by electromyogram (EMG).
# (§1) At certain points in time, the collapsibility of the upper respiratory tract is tested by having the pig breathe via the caudal cannula and applying negative pressures of −50, −100 and −150 cm water head (cmH2O) to the upper respiratory tract. This causes the upper respiratory tract to collapse, which manifests itself in an interruption of the airflow and a pressure drop in the tube system. This test is conducted prior to the administration of the test substance and at certain intervals after the administration of the test substance. An appropriately effective test substance can prevent this collapse of the respiratory tract in the inspiratory phase.
# Administration of the test substance can be intranasal, intravenous, subcutaneous, intraperitoneal, intraduodenal or intragastral.
# The therapeutic potential of the combination of an α2-Adrenoceptor subtype C (alpha-2C) antagonists with a TASK⅓ channel blocker according to the present invention in sleep apnea can be assessed preclinically in a pig model of obstructive sleep apnea (OSA).
# Using negative pressure, it is possible to induce collapse and thus obstruction of the upper respiratory tract in anaesthetized, spontaneously breathing pigs (Wirth K. J. et al., Sleep 36(5) (2013) pp. 699-708).
# German Landrace pigs are used for the model. The pigs are anaesthetized and tracheotomized. Two tracheal cannulas are inserted into the trachea, one into the rostral part and the other into the caudal part of the trachea. Using a connection piece, the rostral cannula is connected to a tube to the negative pressure device and to the distal tracheal cannula. The distal tracheal cannula is additionally connected to a tube with an open end to atmosphere via a connection piece that served for free tracheal breathing, circumventing the upper airway. By appropriate opening and clamping of those tubes breathing can be switched from nasal breathing to breathing through the caudal tracheal cannula, circumventing the upper airway, and the (isolated) upper airway can be connected to the negative pressure device, causing airflow in the inspiratory direction.
# as §1, with “(cm H2O)” for “(cmH2O)”
smiles,measurement,setting,value
"COCC1CCCN(C2CCN(c3ncc(C(=O)NCc4ncc(F)cc4F)s3)CC2)C1 (single isomer, unassigned) [Example 100, ent-N-[(3,5-Difluoropyridin-2-yl)methyl]-2-[3-(methoxymethyl)[1,4′-bipiperidin]-1′-yl]-1,3-thiazole-5-carboxamide]",IC50,human ADRA2C receptor [1],5 nM
same,Ki,human ADRA2C receptor [1],2 nM
same,IC50,human ADRA2C receptor [2],2.9 nM
"C[C@@H]1CCCN(C2CCN(c3ncc(C(=O)NCc4ncc(F)cc4F)s3)CC2)C1 [Example 1, N-[(3,5-Difluoropyridin-2-yl)methyl]-2-[(3R)-3-methyl[1,4′-bipiperidin]-1′-yl]-1,3-thiazole-5-carboxamide]",IC50,human ADRA2C receptor [1],54 nM
same,Ki,human ADRA2C receptor [1],24 nM
same,IC50,human ADRA2C receptor [2],121 nM
"C[C@@H]1CCCN(C2CCN(c3ncc(C(=O)NCc4ncc(F)cc4F)s3)CC2)C1 [N-[(3,5-difluoropyridin-2-yl)methyl]-2-[(3R)-3-methyl[1,4′-bipiperidin]-1′-yl]-1,3-thiazole-5-carboxamide]",Percent pigs without collaps −50 cm H2O,[3]; time 0 min,0%
same,Percent pigs without collaps −100 cm H2O,[3]; time 0 min,0%
same,Percent pigs without collaps −150 cm H2O,[3]; time 0 min,0%
same,Percent pigs without collaps −50 cm H2O,[3]; time 30 min,0%
same,Percent pigs without collaps −100 cm H2O,[3]; time 30 min,0%
same,Percent pigs without collaps −150 cm H2O,[3]; time 30 min,0%
same,Percent pigs without collaps −50 cm H2O,[3]; time 60 min,0%
same,Percent pigs without collaps −100 cm H2O,[3]; time 60 min,0%
same,Percent pigs without collaps −150 cm H2O,[3]; time 60 min,0%
same,Percent pigs without collaps −50 cm H2O,[3]; time 90 min,33%
same,Percent pigs without collaps −100 cm H2O,[3]; time 90 min,33%
same,Percent pigs without collaps −150 cm H2O,[3]; time 90 min,33%
same,Percent pigs without collaps −50 cm H2O,[3]; time 120 min,100%
same,Percent pigs without collaps −100 cm H2O,[3]; time 120 min,100%
same,Percent pigs without collaps −150 cm H2O,[3]; time 120 min,67%
same,Percent pigs without collaps −50 cm H2O,[3]; time 150 min,100%
same,Percent pigs without collaps −100 cm H2O,[3]; time 150 min,100%
same,Percent pigs without collaps −150 cm H2O,[3]; time 150 min,100%
same,Percent pigs without collaps −50 cm H2O,[3]; time 180 min,100%
same,Percent pigs without collaps −100 cm H2O,[3]; time 180 min,100%
same,Percent pigs without collaps −150 cm H2O,[3]; time 180 min,100%
same,Percent pigs without collaps −50 cm H2O,[3]; time 210 min,67%
same,Percent pigs without collaps −100 cm H2O,[3]; time 210 min,33%
same,Percent pigs without collaps −150 cm H2O,[3]; time 210 min,0%
same,Percent pigs without collaps −50 cm H2O,[3]; time 230 min,0%
same,Percent pigs without collaps −100 cm H2O,[3]; time 230 min,0%
same,Percent pigs without collaps −150 cm H2O,[3]; time 230 min,0%
same,upper airway collapsibility,"[3]; 230 min after administration, all pigs",induced at all negative pressures
same,"time points at which upper airway collapsibility was inhibited at all negative pressures of −50, −100 and −150 cm H2O in all pigs",[3]; first set,only at time point 150 and 180 min
same,"time points at which upper airway collapsibility was inhibited at all negative pressures of −50, −100 and −150 cm H2O in all pigs",[3]; second set,at no time point
same,Percent pigs without collaps −50 cm H2O,"[3]; second set, time 0 min",0%
same,Percent pigs without collaps −100 cm H2O,"[3]; second set, time 0 min",0%
same,Percent pigs without collaps −150 cm H2O,"[3]; second set, time 0 min",0%
same,Percent pigs without collaps −50 cm H2O,"[3]; second set, time 30 min",0%
same,Percent pigs without collaps −100 cm H2O,"[3]; second set, time 30 min",0%
same,Percent pigs without collaps −150 cm H2O,"[3]; second set, time 30 min",0%
same,Percent pigs without collaps −50 cm H2O,"[3]; second set, time 60 min",50%
same,Percent pigs without collaps −100 cm H2O,"[3]; second set, time 60 min",0%
same,Percent pigs without collaps −150 cm H2O,"[3]; second set, time 60 min",0%
same,Percent pigs without collaps −50 cm H2O,"[3]; second set, time 90 min",100%
same,Percent pigs without collaps −100 cm H2O,"[3]; second set, time 90 min",50%
same,Percent pigs without collaps −150 cm H2O,"[3]; second set, time 90 min",50%
same,Percent pigs without collaps −50 cm H2O,"[3]; second set, time 120 min",100%
same,Percent pigs without collaps −100 cm H2O,"[3]; second set, time 120 min",100%
same,Percent pigs without collaps −150 cm H2O,"[3]; second set, time 120 min",0%
same,Percent pigs without collaps −50 cm H2O,"[3]; second set, time 150 min",50%
same,Percent pigs without collaps −100 cm H2O,"[3]; second set, time 150 min",0%
same,Percent pigs without collaps −150 cm H2O,"[3]; second set, time 150 min",0%
same,Percent pigs without collaps −50 cm H2O,"[3]; second set, time 180 min",0%
same,Percent pigs without collaps −100 cm H2O,"[3]; second set, time 180 min",0%
same,Percent pigs without collaps −150 cm H2O,"[3]; second set, time 180 min",0%
same,upper airway collapsibility,"[3]; second set, 90 min after administration",only inhibited at negative pressures of −50 cm head
same,upper airway collapsibility,"[3]; second set, 120 min after administration",only inhibited at negative pressures of −50 and −100 cm head
same,upper airway collapsibility,"[3]; second set, 180 min after administration, all pigs",induced at all negative pressures
